Experimental data from patent US20210220295A1, “TREATMENT OF CANCER BY GUANIDINIUM DERIVATIVES” (priority 2018, published 2021).

Legend:
[1] = system: CAPANI cells (which are deficient in brca2); conditions: cited from earlier work
MCF-7 brca1+/+cells = conditions: 10 μM, exposure for 10 consecutive days; cited from earlier work
[2] = mouse, in vivo

O=C1CCC(=O)N1c1cc(Cc2n[nH]c(=O)c3ccccc23)ccc1F [KU0058684]
inhibition of CAPANI cells [1]: inhibited

CN(C)Cc1ccc(-c2nc3cccc4c3n2CCNC4=O)cc1 [AG14361]
MCF-7 brca1+/+ cells eradicated (MCF-7 brca1+/+cells): 50%

poly-[2-(2-ethoxyethoxyethyl)guanidinium hydrochloride]
tolerated dose, daily intravenous dosing regime [2]: 2.5 mg/kg body weight
tolerated dose, weekly basis ([2]; iv): 5 mg/kg body weight

Cc1nc2c(O)cccc2c(=O)[nH]1 [NU1025]
inhibition of CAPANI cells [1]: not inhibited
